Measurements reported in patent EP4635500A1, “THERAPEUTIC AGENT FOR BACTERIAL INFECTION” (Sumitomo Pharma Co., Ltd., priority 2022, dated 2024).
≈ marks a conversion by molar mass, not a printed value. Read-outs that look alike come from different tables or passages of the source.

Columns and labels:
Type in all cases: cell-based
Escherichia coli [1] = assay: MIC and MBC, broth microdilution (Example 4, Table 3)
Escherichia coli [2] = assay: MIC, broth microdilution, standard strains and Japanese clinical isolates (Example 5, Table 4)
Klebsiella pneumoniae = assay: as above
Enterobacter cloacae = assay: as above
Enterobacter hormaechei = assay: as above; conditions: ATCCBAA2082; KUB4001 Enterobacter hormaechei ATCC BAA-2082, KPC-2
Providencia rettgeri = assay: as above; conditions: ATCCBAA2525; KUB4010 Providencia rettgeri ATCC BAA-2525, OXA-181
CRE and CPE strains = assay: MIC, broth microdilution, standard strains and Japanese clinical isolates (Example 5, Table 4 continued; organism of each KUB strain not given)
[3] = Escherichia coli CDC-150 (NDM-5)

Work on CC(C)(O/N=C(\C(=O)N[C@@H]1C(=O)N2C(C(=O)[O-])=C(C[n+]3ccccc3)CS[C@H]12)c1csc(N)n1)C(=O)O [CAZ, ceftazidime] yielded an MBC/MIC ratio (Escherichia coli [1]) of 1, an MBC (Escherichia coli [1]; ATCCBAA2340, Escherichia coli ATCC BAA-2340 (KPC-3), read-out: MBC) of 128 µg/mL (≈ 234 µM) and an MBC (Escherichia coli [1]; ATCCBAA2469, Escherichia coli ATCC BAA-2469 (NDM-1), read-out: MBC) greater than 128 µg/mL. It also gave an MIC (Escherichia coli [1]; ATCCBAA2469, Escherichia coli ATCC BAA-2469 (NDM-1), read-out: MIC) greater than 128 µg/mL, an MBC (Escherichia coli [1]; [3]) greater than 128 µg/mL and an MIC (Escherichia coli [1]; [3]) greater than 128 µg/mL. For the same compound, the MBC (Escherichia coli [1]; Escherichia coli CDC-162 (NDM-7), read-out: MBC) was greater than 128 µg/mL, the MIC (Escherichia coli [1]; Escherichia coli CDC-162 (NDM-7), read-out: MIC) was greater than 128 µg/mL and the MBC (Escherichia coli [1]; Escherichia coli NCTC13476 (IMP-1), read-out: MBC) was greater than 128 µg/mL. It also gave an MIC (Escherichia coli [1]; Escherichia coli NCTC13476 (IMP-1), read-out: MIC) greater than 128 µg/mL, an MIC (Escherichia coli [1]; Escherichia coli, ATCCBAA2340) of 128 µg/mL (≈ 234 µM) and an MIC (Escherichia coli [2]; ATCCBAA2452, KUB4005 Escherichia coli ATCC BAA-2452, NDM-1) greater than 32 µg/mL. The MIC (Escherichia coli [2]; ATCCBAA2471, KUB4007 Escherichia coli ATCC BAA-2471, NDM-6) was greater than 32 µg/mL, the MIC (Klebsiella pneumoniae; ATCCBAA1898, KUB3996 Klebsiella pneumoniae ATCC BAA-1898, KPC-2) was greater than 32 µg/mL and the MIC (Klebsiella pneumoniae; ATCCBAA1899, KUB3997 Klebsiella pneumoniae ATCC BAA-1899, KPC-2) was greater than 32 µg/mL. It also gave an MIC (Klebsiella pneumoniae; ATCCBAA1900, KUB3998 Klebsiella pneumoniae ATCC BAA-1900, KPC-3) greater than 32 µg/mL, an MIC (Klebsiella pneumoniae; ATCCBAA1904, KUB3999 Klebsiella pneumoniae ATCC BAA-1904, KPC-3) of 16 µg/mL (≈ 29.3 µM) and an MIC (Klebsiella pneumoniae; ATCCBAA2078, KUB4000 Klebsiella pneumoniae ATCC BAA-2078, KPC-3) greater than 32 µg/mL. It also gave an MIC (Klebsiella pneumoniae; ATCCBAA2146, KUB4011 Klebsiella pneumoniae ATCC BAA-2146, NDM-1) greater than 32 µg/mL, an MIC (Klebsiella pneumoniae; ATCCBAA2342, KUB4003 Klebsiella pneumoniae ATCC BAA-2342, KPC-3) greater than 32 µg/mL and an MIC (Klebsiella pneumoniae; ATCCBAA2343, KUB4004 Klebsiella pneumoniae ATCC BAA-2343, KPC-3) greater than 32 µg/mL. It also gave an MIC (Klebsiella pneumoniae; ATCCBAA2472, KUB4008 Klebsiella pneumoniae subsp. Pneumoniae ATCC BAA-2472, NDM-1) greater than 32 µg/mL, an MIC (Klebsiella pneumoniae; ATCCBAA2473, KUB4009 Klebsiella pneumoniae ATCC BAA-2473, NDM-1) greater than 32 µg/mL and an MIC (Klebsiella pneumoniae; KUB3631 Klebsiella pneumoniae Clinical isolate, IMP-1) greater than 32 µg/mL. The MIC (Klebsiella pneumoniae; KUB3633 Klebsiella pneumoniae Clinical isolate, IMP-6) was 32 µg/mL (≈ 58.5 µM), the MIC (Klebsiella pneumoniae; KUB3634 Klebsiella pneumoniae Clinical isolate, IMP-6) was 16 µg/mL (≈ 29.3 µM) and the MIC (Klebsiella pneumoniae; KUB3635 Klebsiella pneumoniae Clinical isolate, IMP-1) was greater than 32 µg/mL. For the same compound, the MIC (Enterobacter cloacae; ATCCBAA2341, KUB4002 Enterobacter cloacae ATCC BAA-2341, KPC-3) was greater than 32 µg/mL, the MIC (Enterobacter cloacae; ATCCBAA2468, KUB4006 Enterobacter cloacae ATCC BAA-2468, NDM-1) was greater than 32 µg/mL and the MIC (Enterobacter hormaechei) was greater than 32 µg/mL. The MIC (Providencia rettgeri) was greater than 32 µg/mL, the MIC (CRE and CPE strains; strain KUB3148, carbapenemase gene KPC-3, read-out: MIC) was greater than 32 µg/mL and the MIC (CRE and CPE strains; strain KUB3149, carbapenemase gene NDM-1, read-out: MIC) was greater than 32 µg/mL. For the same compound, the MIC (CRE and CPE strains; strain KUB3150, carbapenemase gene OXA-48, read-out: MIC) was 1 µg/mL (≈ 1.83 µM), the MIC (CRE and CPE strains; strain KUB3151, carbapenemase gene IMP-1, read-out: MIC) was greater than 32 µg/mL and the MIC (CRE and CPE strains; strain KUB3152, carbapenemase gene KPC-2, read-out: MIC) was 32 µg/mL (≈ 58.5 µM). It also gave an MIC (CRE and CPE strains; strain KUB3153, carbapenemase gene KPC-3, read-out: MIC) greater than 32 µg/mL, an MIC (CRE and CPE strains; strain KUB3154, carbapenemase gene KPC-2, read-out: MIC) of 32 µg/mL (≈ 58.5 µM) and an MIC (CRE and CPE strains; strain KUB3158, carbapenemase gene OXA-48) of 0.5 µg/mL (≈ 0.915 µM). For the same compound, the MIC (CRE and CPE strains; strain KUB3169, carbapenemase gene Unidentified) was 8 µg/mL (≈ 14.6 µM), the MIC (CRE and CPE strains; strain KUB3170, carbapenemase gene Unidentified) was 8 µg/mL (≈ 14.6 µM) and the MIC (CRE and CPE strains; strain KUB3171, carbapenemase gene -) was 8 µg/mL (≈ 14.6 µM).
